# From patent US20190388428A1, “A Pharmaceutical Composition Comprising An Oxazine Derivative And Its Use In The Treatment Or Prevention Of Alzheimer's Disease” (NOVARTIS AG, priority 2017, published 2019)
# What was measured:
# [1] = Off-target binding or activity (background statement)
# [2] = Drug-drug interaction study with strong CYP3A4 inhibitor itraconazole in healthy volunteers; assay type: in vivo, human; conditions: with itraconazole 200 mg q.d. vs Compound 1 alone
# Source text: (§1) The DDI study design is outlined in FIG. 10.
# (§2) An ANOVA model with fixed effects for treatment and subject was fitted to each log-transformed PK parameter. Results were back transformed to obtain ‘Adjusted geo-mean’, ‘Geo-mean ratio’ and ‘90% Cl’.
# [3] = Drug-drug interaction study with strong CYP3A4 inducer rifampicin in healthy volunteers; assay type: in vivo, human; conditions: with rifampicin 600 mg q.d. vs Compound 1 alone
# Source text: as §1, §2
# [4] = Physical properties of the drug substance (solubility, hygroscopicity, wettability); assay type: physicochemical
# [5] = Chemical stability of crystalline Compound 1 at high temperature/humidity (UPLC purity); assay type: physicochemical; conditions: for Purity/%: crystalline material
# Source text: After storage at high temperature and/or humidity, bulk crystalline material was sampled and dissolved in acetonitrile:water (80:20) and the purity analysed in a Waters Aquity UPLC using the following conditions: […]
structure (smiles),measurement,setting,value
"C[C@@]1(c2nc(NC(=O)c3ncc(C(F)(F)F)cc3Cl)ccc2F)CO[C@@](C)(C(F)(F)F)C(N)=N1 [Compound 1, N-(6-((3R,6R)-5-amino-3,6-dimethyl-6-(trifluoromethyl)-3,6-dihydro-2H-1,4-oxazin-3-yl)-5-fluoropyridin-2-yl)-3-chloro-5-(trifluoromethyl)picolinamide]",off-target binding or activity,[1],no relevant off-target binding or activity
same,increase of mean AUC,[2],2-3 fold
same,increase of mean Cmax,[2],25%
same,decrease of mean AUC,[3],5-6 fold
same,decrease of mean Cmax,[3],2.5 fold
same,hygroscopicity,[4],non-hygroscopic
same,wettability,[4],poorly wettable
same,solubility in water,[4]; water,poorly soluble
same,Solid State Form,"[5]; 50° C./75% RH, 3 weeks",Crystalline
same,Solid State Form,"[5]; 50° C., 4 weeks",Crystalline
same,Solid State Form,"[5]; 80° C., 3 weeks",Crystalline
same,Solid State Form,"[5]; RT, 0 (initial)",Crystalline
same,Purity/%,"[5]; 50° C./75% RH, 3 weeks",96.8%
same,Purity/%,"[5]; 50° C., 4 weeks",97.3%
same,Purity/%,"[5]; 80° C., 3 weeks",97.3%
same,Purity/%,"[5]; RT, 0 (initial)",97.3%
